pEC50: −log10 of the molar value.
Key:
[1] = Stopped-flow fluorescence kinetics of membrane insertion and exit; type: physicochemical; conditions: POPC liposomes
Method: Fluorescence kinetics was measured using a SFM-300 mixing system (Bio-Logic Science Instruments) in combination with the MOS-450 spectrometer with the temperature control set to 25°C. All samples were degassed before measurement to minimize air bubbles in the samples. pHLIP-mMSA/2pHLIP-dMSA and POPC samples were incubated overnight to reach equilibrium, when most of the agent was associated with liposome lipid bilayers. […] To follow exit of pHLIP-mMSA/2pHLIP-dMSA from the membrane, a low pH solution containing 14 μM pHLIP-mMSA/2pHLIP-dMSA and 2.8 mM POPC was mixed with dibasic phosphate buffer to raise the pH from 4 to 7.4. To monitor the fluorescence intensity changes during pHLIP-mMSA/2pHLIP-dMSA insertion induced by the pH change, the emission signal was observed through a cut-off 320 nm filter at an excitation of 295 nm.

[2] = Blood clearance (PK) by whole blood fluorescence imaging; type: in vivo, Balb/c mice
Method: For biodistribution studies 5 × 10^4 of CT26 cancer cells were injected SQ in 100 µL of growth medium into the right flank of female Balb/c mice and tumors were grown until they reached 150–250 mm^3 in volume. Then a single retro-orbital (RO) injection of 50 μM 100 μL of 2(ICG-pHLIP)-dMSA was performed. Animals were euthanized at 5 min, 1, 4, 24, 48, 72, and 120 h post-injection, blood was collected in K2 EDTA vacutainer blood collection tubes (BD), and necropsy was performed immediately after animals were euthanized. Blood, tumors and major organs (kidney, liver, spleen, pancreas, lung, heart, large and small intestines, bone, muscle, brain) were collected, and imaged ex vivo immediately after necropsy. Blood (200 µL) was imaged in 96-well plates with black bottom and walls.
The in vivo and ex vivo bright field and near-infrared fluorescent imaging employed a Stryker 1588 AIM endoscopic system with L10 AIM Light Source (808 nm excitation and collection of light in the range of approximately of 815–850 nm), and a 1588 AIM Camera using a 10 mm scope. The lens was kept at a fixed distance from the surface of the organs, within an enclosed (light-protected) area. Calibration curves converting laser and gain settings were established by imaging of pHLIP-ICG solution at different concentrations. The ex vivo fluorescence imaging of tissue specimens was performed using three different laser settings and six different gain settings. The digital fluorescence images were split into RGB channels, with the green channel being analyzed using ImageJ program to calculate the average fluorescence intensity. All average intensities were adjusted based on their capture settings and using calibration curves to present fluorescence intensities corresponding to the unified (the same) settings.

[3] = Self-immolation kinetics of the S-S linker and payload release after DTT, by HPLC; type: physicochemical; conditions: DTT in 50 mM phosphate buffer, 150 mM NaCl, pH 7.4; HPLC at 0.5-48 h, UV 220/280/325 nm
Method: Figure S3. Kinetics of self-immolation of 2pHLIP-dMSA. […] Starting 2pHLIP-dMSA is shown on A.
Figure S4. Self-immolation kinetics of pHLIP-mMSA. HPLC chromatograms recorded at 280 nm and 325 nm for pHLIP-mMSA treated with DTT dissolved in 50 mM phosphate buffer containing 150 mM NaCl pH 7.4 at different time points ([…]) after addition of DTT (A-G) and the retention time for mMSA (H) and pHLIP (I) are shown. Starting pHLIP-mMSA is shown on A.

[4] = tested on: THP-1-Blue-ISG cells polarized into M2-type macrophages; assay: Activation of IFN (IRF-SEAP reporter) in M2-polarized macrophages; type: cell-based, human; conditions: THP1-Blue-ISG cells polarized by PMA, IL-4/IL-13, 2 h in DMEM without FBS pH 6.9, then 48 h, QUANTI-Blue, absorbance 655 nm, read-out: EC50 of activation of IRF signaling
Method: THP-1-Blue™-ISG cells (Invivogen) expressing an interferon (IFN) regulatory factor (IRF)-inducible secreted embryonic alkaline phosphatase (SEAP) reporter construct were used. Cells were maintained in RPMI growth medium supplemented with L-glutamine, sodium pyruvate, 10% fetal bovine serum (FBS), normocin and ciprofloxacin hydrochloride in a humidified atmosphere of 5% CO2 and 95% air at 37°C. Cells were seeded in 96-well plates at a density of 75,000 cells/well. To generate M2 polarized macrophages, cells were treated first with 185 ng/mL phorbol 12-myristate 13-acetate (PMA) for 6 h and then 20 ng/mL of interleukin 4 (IL-4) and 20 ng/mL of interleukin 13 (IL-13) (both from PeproTech) were added for another 16 h of treatment. […] After a 2-h incubation, an equal volume of RPMI supplemented with 20% heat-inactivated FBS was added, and cells were incubated for another 48 h. SEAP activity was accessed using the QUANTI-Blue™ Solution (Invivogen) to evaluate type I interferon protein levels: 150 μL of the colorimetric reagent was added to 50 μL of cell supernatant for 30 min, 37°C, followed by absorption measurement at 655 nm.

[5] = molecular target: human serum albumin (HSA) (Homo sapiens, UniProt P02768)
Method: HSA was initially dissolved to 500 μM in deionized water and further diluted using pH 7.6 phosphate buffer. Dansylamide (DNSA) or dansylglycine (DNSG) (both from Tokyo Chemical Industry) were used as fluorescent markers, which are known to bind to specific sites on HSA. Each well contained 100 μL of sample consisting of the fluorescent marker DNSA or DNSG (1 μM), with different concentrations of pHLIP agents (0, 5, or 10 μM) and concentrations of HSA ranging from 0 μM to 100 μM. Samples were incubated for 2 h at 37°C. […] Fluorescence measurements from each well were performed at 485 nm with excitation at 365 nm at 37°C. As a control, binding of DNSA and DNSG were probed with each agent in absence of HSA. Before the measurements a plate reader optimization test was run. Data were fitted individually and globally using the Michaelis-Menten equation. […] Data was fitted by nonlinear least squares curve fitting procedures employing the Levenberg Marquardt algorithm using Origin 8.5.
Table S1. Competitive binding assay.
Figure S8. HSA binding. […] The global fitting was performed with each set of data and the fitting curves are shown as black, blue and red lines.

[6] = Stability in mouse plasma; conditions: BALB/c mouse plasma, 200 µM, 0-24 h at 37°C, methanol precipitation, HPLC C18, UV 220/280/325 nm
Method: Plasma proteins were precipitated by methanol (1:5 volume ratio of plasma to methanol) and centrifuged for 10 min at […]. The supernatant was collected and analyzed by HPLC using a Zorbax SB-C18 4.6 × 250 mm, 5 μm column with a gradient from 20% to 80% acetonitrile in water containing 0.05% TFA. Chromatograms were recorded at 220 nm, 280 nm and 325 nm.

Sequence: ADQDNPWRAYLDLLFPTDTLLLDLLWCG [2pHLIP-dMSA]
- time to completion of insertion into the lipid bilayer ([1]; pH drop from pH 7.4 to 4, 25°C, fluorescence ex 295 nm): ≤ 100 ms
- kinetics of membrane insertion (in words) ([1]; pH drop from pH 7.4 to 6, compared with pHLIP-mMSA): more efficient and faster than the insertion of pHLIP-mMSA
- exit from the lipid bilayer (in words) ([1]; pH rise from pH 4 to 7.4 and from pH 4 to 5.5, compared with pHLIP-mMSA): slightly slower
- circulation in the blood ([2]; mice, stated in discussion): 1 to 2 days
- blood clearance half-life ([2]; single RO injection of 2(ICG-pHLIP)-dMSA 50 µM 100 µL, CT26 tumor-bearing female Balb/c mice, whole blood fluorescence, exponential fit): > 30 h
- time to completion of linker self-immolation and release of payload in its original form [3]: ≤ 48 h
- pEC50 [4]: 6.70
- binding to HSA (in words) [5]: strong binding
- stability in mouse plasma (in words) [6]: low

— paper PMC10940318, “Targeted intracellular delivery of dimeric STINGa by two pHLIP peptides for treatment of solid tumors” (Frontiers in Pharmacology, 2024)
